The values that follow come from article PMC4638293 (The Journal of Veterinary Medical Science, 2015).

Marks after values point to notes of the source that are not given here.

The data set is classed as in vivo. As to conditions: rat, PY 4 mg/kg oral; for Total amount in feces: 24 hr feces collection; for Total amount in brain (tissue weight): whole brain; for Total amount in cecum (tissue weight): whole cecum; for Total amount in colon (tissue weight): whole colon; for Total amount in duodenum (tissue weight): whole duodenum; for Total amount in heart (tissue weight): whole heart; for Total amount in ileum (tissue weight): whole ileum; for Total amount in jejunum (tissue weight): whole jejunum; for Total amount in kidney (tissue weight): whole kidney; for Total amount in liver (tissue weight): whole liver; for Total amount in lung (tissue weight): whole lung; for Total amount in spleen (tissue weight): whole spleen; for Total amount in stomach (tissue weight): whole stomach; for Total amount in testes (tissue weight): whole testes; for Total amount in tongue (tissue weight): whole tongue.

The mark [1] stands for this setting: 24 hr urine collection, mean ± SD, unit ppb printed.
[2] abbreviates: 24 hr, wet-g, mean ± SD, unit ppb printed.
[3] abbreviates: 24 hr, mean ± SD, unit ppb printed.

For the molecule `c1cc2ccc3cccc4ccc(c1)c2c34` [PY, Pyrene], the “Total amount in feces” value (mean ± SD) is listed as “(380.9 ± 31.2) ng”. Where the note is “24 hr urine collection, mean ± SD”, the “Total amount in urine” value is listed as “(40.7 ± 9.6) ng”. In addition, the Concentration in urine under setting [1] is 4.3 ± 0.0^d,e ppb. Under “24 hr, mean ± SD”, the “Total amount in brain (tissue weight)” value is given as “(17.5 ± 1.5) ng”, the “Total amount in cecum (tissue weight)” value was “(33.0 ± 4.8) ng”, the “Total amount in colon (tissue weight)” value is recorded as “(32.0 ± 7.7) ng” and the “Total amount in duodenum (tissue weight)” value is reported as “(19.4 ± 5.3) ng”. For the same molecule, where the note is “24 hr, mean ± SD”, the “Total amount in heart (tissue weight)” value was “(12.7 ± 1.5) ng”, the “Total amount in ileum (tissue weight)” value is “(22.0 ± 1.7) ng”, the “Total amount in jejunum (tissue weight)” value is listed as “(34.5 ± 14.8) ng” and the “Total amount in kidney (tissue weight)” value is reported as “(12.1 ± 2.0) ng”. For the same molecule, where the note is “24 hr, mean ± SD”, the “Total amount in liver (tissue weight)” value is listed as “(124.5 ± 20.4) ng”, the “Total amount in lung (tissue weight)” value is listed as “(10.7 ± 0.2) ng”, the “Total amount in spleen (tissue weight)” value is given as “(12.4 ± 0.8) ng” and the “Total amount in stomach (tissue weight)” value is on record as “(22.4 ± 4.1) ng”. Besides, for the setting “24 hr, mean ± SD”, the “Total amount in testes (tissue weight)” value was “(13.3 ± 3.7) ng” and the “Total amount in tongue (tissue weight)” value is recorded as “(11.4 ± 0.4) ng”.

With `O=C(O)[C@H]1O[C@@H](Oc2ccc3ccc4cccc5ccc2c3c45)[C@H](O)[C@@H](O)[C@@H]1O` [PYOG, Pyrene-1-glucuronide], for the setting “24 hr urine”, the “Share of PY excreted via urine as PYOG” value is reported as “around 10%”. Further, the Concentration in urine under setting [1] is 10.1 × 10^3 ± 400^c,d ppb. For the same molecule, the Concentration in brain (24 hr, brain, wet-g, mean ± SD, unit ppb printed) was 210 ± 60^d ppb. Moreover, under setting [2], the Concentration in cecum was 1.4 × 10^3 ± 100^d ppb, the Concentration in colon is 1.2 × 10^3 ± 300^d ppb, the Concentration in heart was 1.1 × 10^3 ± 200^d ppb and the Concentration in ileum is reported as 170.1 × 10^3 ± 700^a ppb. In addition, under setting [2], the Concentration in jejunum is 87.1 × 10^3 ± 400^b ppb, the Concentration in kidney is 20.6 × 10^3 ± 100^c,d ppb, the Concentration in liver is listed as 10.2 × 10^3 ± 300^c,d ppb and the Concentration in lung is on record as 2.4 × 10^3 ± 900^c,d ppb. Moreover, under setting [2], the Concentration in stomach is given as 1.7 × 10^3 ± 10^d ppb and the Concentration in testes is 1.0 × 10^3 ± 360^d ppb. Also, the Concentration in duodenum (24 hr, duodenum, wet-g, mean ± SD, unit ppb printed) is reported as 65.9 × 10^3 ± 800^b,c ppb. Also, the Concentration in plasma under setting [3] is recorded as 446.0 ± 30^d ppb. For the same molecule, the Concentration in spleen (24 hr, spleen, wet-g, mean ± SD, unit ppb printed) is recorded as 790 ± 20^d ppb. Also, where the note is “24 hr, tongue, wet-g, mean ± SD, unit ppb printed”, the Concentration in tongue was 1.4 × 10^3 ± 500^d ppb. Besides, where the note is “24 hr, mean ± SD”, the “Total amount in brain (tissue weight)” value is reported as “(310 ± 100) ng”, the “Total amount in cecum (tissue weight)” value is reported as “(950 ± 70) ng”, the “Total amount in colon (tissue weight)” value is “(1.0 × 10^3 ± 200) ng” and the “Total amount in heart (tissue weight)” value is recorded as “(860 ± 140) ng”. In addition, where the note is “24 hr, mean ± SD”, the “Total amount in ileum (tissue weight)” value was “(58 × 10^3 ± 300) ng”, the “Total amount in kidney (tissue weight)” value is on record as “(18 × 10^3 ± 880) ng”, the “Total amount in liver (tissue weight)” value was “(70 × 10^3 ± 220) ng” and the “Total amount in lung (tissue weight)” value was “(1.7 × 10^3 ± 640) ng”. Further, where the note is “24 hr, mean ± SD”, the “Total amount in spleen (tissue weight)” value is “(380 ± 120) ng”, the “Total amount in stomach (tissue weight)” value is given as “(1.7 × 10^3 ± 100) ng”, the “Total amount in testes (tissue weight)” value was “(1.1 × 10^3 ± 390) ng” and the “Total amount in tongue (tissue weight)” value was “(420 ± 110) ng”.

In the case of `Oc1ccc2ccc3cccc4ccc1c2c34` [PYOH, 1-hydroxypyrene], the “Share of PY excreted via feces as PYOH” value (24 hr feces) is about 70%. Moreover, the “Total amount in feces” value (mean ± SD) is given as “(755.8 × 10^3 ± 700) ng”. Moreover, under setting [1], the Concentration in urine is recorded as 546 ± 78^b ppb. For the same molecule, under setting [2], the Concentration in cecum is 59.4 × 10^3 ± 800^a,b ppb and the Concentration in colon is given as 13 × 10^3 ± 800^b ppb. For the same molecule, for the setting “24 hr, mean ± SD”, the “Total amount in cecum (tissue weight)” value is given as “(40.1 × 10^3 ± 100) ng”, the “Total amount in colon (tissue weight)” value was “(11.4 × 10^3 ± 700) ng”, the “Total amount in duodenum (tissue weight)” value was “(441 ± 29) ng” and the “Total amount in ileum (tissue weight)” value is recorded as “(4.1 × 10^3 ± 400) ng”. Under “24 hr, mean ± SD”, the “Total amount in jejunum (tissue weight)” value is given as “(1.6 × 10^3 ± 200) ng”, the “Total amount in kidney (tissue weight)” value is on record as “(135 ± 19) ng”, the “Total amount in liver (tissue weight)” value is listed as “(8.5 × 10^3 ± 100) ng” and the “Total amount in stomach (tissue weight)” value is on record as “(871 ± 64) ng”. The “Total amount in testes (tissue weight)” value (24 hr, mean ± SD) is “(92 ± 37) ng”.

`O=S(=O)(O)Oc1ccc2ccc3cccc4ccc1c2c34` [PYOS, Pyrene-1-sulfate]: the Concentration in urine under setting [1] is reported as 13 ± 7^b ppb. Besides, under setting [2], the Concentration in cecum is reported as 89 ± 58^a,b ppb, the Concentration in colon was 54 ± 20^b ppb, the Concentration in heart is listed as 12 ± 4^b ppb and the Concentration in ileum is 261 ± 21^a ppb. Further, under setting [2], the Concentration in jejunum is recorded as 39 ± 17^b ppb, the Concentration in kidney is 76 ± 38^a,b ppb, the Concentration in liver is on record as 96 ± 38^a,b ppb and the Concentration in lung is recorded as 38 ± 13^b ppb. For the same molecule, under setting [2], the Concentration in stomach is listed as 11 ± 1^b ppb and the Concentration in testes is on record as 11 ± 3^b ppb. For the same molecule, the Concentration in plasma under setting [3] is 2 ± 1^b ppb. Under “24 hr, mean ± SD”, the “Total amount in cecum (tissue weight)” value is on record as “(57 ± 35) ng”, the “Total amount in colon (tissue weight)” value is on record as “(47 ± 16) ng”, the “Total amount in heart (tissue weight)” value is “(9 ± 3) ng” and the “Total amount in ileum (tissue weight)” value is “(96 ± 10) ng”. Moreover, for the setting “24 hr, mean ± SD”, the “Total amount in jejunum (tissue weight)” value is given as “(48 ± 21) ng”, the “Total amount in kidney (tissue weight)” value was “(67 ± 33) ng”, the “Total amount in liver (tissue weight)” value is reported as “(650 ± 260) ng” and the “Total amount in lung (tissue weight)” value is given as “(29 ± 9) ng”. Moreover, where the note is “24 hr, mean ± SD”, the “Total amount in stomach (tissue weight)” value is recorded as “(11 ± 1) ng” and the “Total amount in testes (tissue weight)” value is “(12 ± 3) ng”.
